Data on 26 compounds can be found in ChEMBL document CHEMBL1944529, “Structure-based design, synthesis and structure-activity relationships of dibenzosuberyl- and benzoate-substituted tropines as ligands for acetylcholine-binding protein” (Bioorg Med Chem Lett, 2012).

Assay [1] concerns the target Acetylcholine-binding protein (Lymnaea stagnalis, UniProt P58154). As to the kind of experiment: Displacement of [3H]epibatidine from Lymnaea stagnalis acetylcholine binding protein expressed using baculoviral system after 1.5 hrs by scintillation counting.
Assay [2] deals with Neuronal acetylcholine receptor subunit alpha-7 (Homo sapiens, UniProt P36544). As to the kind of experiment: Displacement of [3H]MLA from nAChR alpha7 receptor in human SH-SY5Y cells by scintillation counting. In kind it is cell-based.
Chain of Neuronal acetylcholine receptor subunit alpha-7 (P36544 whole entry): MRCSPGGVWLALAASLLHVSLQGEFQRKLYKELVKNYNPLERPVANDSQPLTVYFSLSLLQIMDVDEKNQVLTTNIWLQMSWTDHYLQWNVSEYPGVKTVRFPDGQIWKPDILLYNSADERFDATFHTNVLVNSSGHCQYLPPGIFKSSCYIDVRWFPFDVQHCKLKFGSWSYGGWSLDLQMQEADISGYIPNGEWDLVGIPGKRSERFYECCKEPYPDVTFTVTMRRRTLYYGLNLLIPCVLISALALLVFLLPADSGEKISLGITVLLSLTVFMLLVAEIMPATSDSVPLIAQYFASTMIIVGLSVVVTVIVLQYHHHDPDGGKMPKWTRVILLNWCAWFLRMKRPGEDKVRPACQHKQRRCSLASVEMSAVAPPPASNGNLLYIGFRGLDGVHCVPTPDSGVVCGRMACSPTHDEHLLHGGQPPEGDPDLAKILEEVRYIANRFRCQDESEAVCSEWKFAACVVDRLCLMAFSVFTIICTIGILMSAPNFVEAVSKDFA
The target of assay [3] is Neuronal acetylcholine receptor; alpha4/beta2 (Homo sapiens, UniProt P17787+P43681). As to the kind of experiment: Displacement of [3H]epibatidine from human nAChR alpha4beta2 receptor expressed in human HEK293T cells by scintillation counting. In kind it is cell-based, HEK-293T.
Chain of Neuronal acetylcholine receptor; alpha4/beta2 (P17787 whole entry): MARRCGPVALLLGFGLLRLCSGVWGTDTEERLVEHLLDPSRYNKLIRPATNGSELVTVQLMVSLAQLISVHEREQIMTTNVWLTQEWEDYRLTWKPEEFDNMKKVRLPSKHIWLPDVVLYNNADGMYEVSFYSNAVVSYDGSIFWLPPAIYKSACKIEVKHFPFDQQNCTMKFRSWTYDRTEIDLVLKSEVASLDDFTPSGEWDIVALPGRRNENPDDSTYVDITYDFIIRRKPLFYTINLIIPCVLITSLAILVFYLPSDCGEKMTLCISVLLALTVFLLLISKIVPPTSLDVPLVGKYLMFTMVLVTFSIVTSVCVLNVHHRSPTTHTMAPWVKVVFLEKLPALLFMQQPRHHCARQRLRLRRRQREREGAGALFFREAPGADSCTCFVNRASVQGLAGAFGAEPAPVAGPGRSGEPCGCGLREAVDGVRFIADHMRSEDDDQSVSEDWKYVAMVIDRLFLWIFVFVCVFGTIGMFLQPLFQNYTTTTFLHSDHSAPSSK
Chain of Neuronal acetylcholine receptor; alpha4/beta2 (P43681 whole entry): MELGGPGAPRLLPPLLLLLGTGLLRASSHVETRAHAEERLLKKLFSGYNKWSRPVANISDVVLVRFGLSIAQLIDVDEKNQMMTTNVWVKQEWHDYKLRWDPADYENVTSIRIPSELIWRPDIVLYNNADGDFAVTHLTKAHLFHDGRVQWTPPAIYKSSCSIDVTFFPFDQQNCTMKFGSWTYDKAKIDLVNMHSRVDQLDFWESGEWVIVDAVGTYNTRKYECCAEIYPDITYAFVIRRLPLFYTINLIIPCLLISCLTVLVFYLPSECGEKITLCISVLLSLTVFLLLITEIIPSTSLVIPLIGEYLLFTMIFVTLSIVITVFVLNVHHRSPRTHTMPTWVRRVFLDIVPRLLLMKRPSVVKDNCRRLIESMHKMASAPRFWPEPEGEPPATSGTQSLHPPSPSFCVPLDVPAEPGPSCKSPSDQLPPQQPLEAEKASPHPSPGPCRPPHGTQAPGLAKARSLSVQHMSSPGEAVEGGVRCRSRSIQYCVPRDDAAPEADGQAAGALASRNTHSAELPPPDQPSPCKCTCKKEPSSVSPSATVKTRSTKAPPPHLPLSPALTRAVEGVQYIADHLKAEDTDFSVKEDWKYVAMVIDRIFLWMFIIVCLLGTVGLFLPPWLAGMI
Assay [4] deals with T1, Soluble acetylcholine receptor (Aplysia californica, UniProt Q8WSF8).
T1 sequence (Q8WSF8 whole entry): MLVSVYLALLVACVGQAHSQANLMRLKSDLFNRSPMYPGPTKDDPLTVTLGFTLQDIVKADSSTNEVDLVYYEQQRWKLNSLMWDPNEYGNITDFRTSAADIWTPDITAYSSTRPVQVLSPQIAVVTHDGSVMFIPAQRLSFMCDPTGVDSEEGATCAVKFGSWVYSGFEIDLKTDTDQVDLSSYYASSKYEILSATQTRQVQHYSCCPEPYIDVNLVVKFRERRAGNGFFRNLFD
As to the kind of experiment: Displacement of [3H]epibatidine from Aplysia californica acetylcholine binding protein expressed using baculoviral system after 1.5 hrs by scintillation counting.

Chain of Acetylcholine-binding protein (P58154 whole entry): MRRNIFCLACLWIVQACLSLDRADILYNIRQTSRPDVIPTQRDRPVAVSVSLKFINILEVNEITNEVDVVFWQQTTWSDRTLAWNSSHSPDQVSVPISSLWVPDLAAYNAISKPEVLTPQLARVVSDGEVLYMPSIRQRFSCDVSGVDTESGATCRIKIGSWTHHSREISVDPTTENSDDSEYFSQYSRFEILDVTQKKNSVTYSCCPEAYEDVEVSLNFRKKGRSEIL

Regarding `Oc1cccc(C(O)CN2[C@@H]3CC[C@H]2C[C@@H](OC2c4ccccc4CCc4ccccc42)C3)c1` (mixture of isomers), the Ki in assay [1] was 2000 nM; in assay [2] it was 39.8 µM; in assay [3], more than 31.6 µM; in assay [4] it was 31600 nM.
For `O=C(O[C@@H]1C[C@H]2CC[C@@H](C1)N2CC(O)c1cc(O)cc(O)c1)c1ccccc1` (stereo partly drawn), in that order: 2000 nM, 12.6 µM, more than 31.6 µM and 20000 nM.
As for `OC(CN1[C@@H]2CC[C@H]1C[C@@H](OC1c3ccccc3CCc3ccccc31)C2)c1ccccc1` (mixture of isomers), the Ki in assay [1] was 2000 nM; in assay [2], 20 µM; in assay [3], more than 31.6 µM; in assay [4] it was 12600 nM.
Regarding `c1ccc2c(c1)CCc1ccccc1C2O[C@H]1C[C@H]2CC[C@@H](C1)N2`, the values for the Ki in assay [1] and in assay [4] were 1000 nM and 10000 nM, respectively.
For `O=C(O[C@@H]1C[C@H]2CC[C@@H](C1)N2CCc1ccccc1)c1ccccc1`, the Ki in assay [1] is 398 nM; in assay [2], 5.01 µM; in assay [3], more than 31.6 µM; in assay [4] it was 1000 nM.
Regarding `O=C(O[C@H]1C[C@H]2CC[C@@H](C1)N2C[C@@H](O)c1ccccc1)c1ccccc1`, the Ki in assay [1] was 1260 nM; in assay [4] it was 794 nM.
With `O=C(O[C@H]1C[C@H]2CC[C@@H](C1)N2CCc1cccc(O)c1)c1ccccc1`, the Ki is 100 nM in assay [1], 12.6 µM in assay [2], more than 31.6 µM in assay [3] and 200 nM in assay [4].
For the compound `O=C(O[C@H]1C[C@H]2CC[C@@H](C1)N2CC(O)c1cccc(O)c1)c1ccccc1` (stereo partly drawn), the Ki in assay [1] was 794 nM; in assay [2] it was 25.1 µM; in assay [3], more than 31.6 µM; in assay [4] it was 631 nM.
For the compound `O=C(O[C@H]1C[C@H]2CC[C@@H](C1)N2CCc1ccccc1)c1ccccc1`, the Ki in assay [1] is 79.4 nM; in assay [2] it was 7.94 µM; in assay [3], more than 31.6 µM; in assay [4], 31.6 nM.
For the compound `C[N+]1(C[C@H](O)c2ccccc2)[C@@H]2CC[C@H]1C[C@@H](OC(=O)c1ccccc1)C2` (stereo partly drawn), the inhibitory constant (Ki) was 126 nM in assay [1] and 794 nM in assay [4].
Consider `C[N+]1(CCc2ccccc2)[C@@H]2CC[C@H]1C[C@@H](OC1c3ccccc3CCc3ccccc31)C2` (stereo partly drawn), for which the inhibition constant Ki in assay [1] was 39.8 nM; in assay [2], 1.58 µM; in assay [3] it was more than 31.6 µM; in assay [4], 631 nM.
Regarding `CN1[C@@H]2CC[C@H]1C[C@@H](OC1c3ccccc3CCc3ccccc31)C2` [DEPTROPINE], the Ki in assay [1] is 2000 nM; in assay [4] it was 6310 nM.
Consider `c1ccc(CCN2[C@@H]3CC[C@H]2C[C@@H](OC2c4ccccc4CCc4ccccc42)C3)cc1`, for which the Ki is 100 nM in assay [1], 12.6 µM in assay [2], more than 31.6 µM in assay [3] and 10000 nM in assay [4].
For `C[N+]1(CC(O)c2ccccc2)[C@@H]2CC[C@H]1C[C@@H](OC(=O)c1ccccc1)C2` (stereo partly drawn), in that order: 126 nM, 10 µM, more than 31.6 µM and 2000 nM.
As for `c1ccc(CN2[C@@H]3CC[C@H]2C[C@@H](OC2c4ccccc4CCc4ccccc42)C3)cc1`, the Ki in assay [1] was 251 nM; in assay [4] it was 10000 nM.
Take `O=C(O[C@H]1C[C@H]2CC[C@@H](C1)N2C[C@H](O)c1ccccc1)c1ccccc1`: the Ki is 794 nM in assay [1] and 100 nM in assay [4].
With `O=C(O[C@H]1C[C@H]2CC[C@@H](C1)N2CC(O)c1cc(O)cc(O)c1)c1ccccc1` (stereo partly drawn), the Ki in assay [1] is 398 nM; in assay [2], 15.8 µM; in assay [3] it was more than 31.6 µM; in assay [4], 7940 nM.
For `C[N+]1(C)[C@@H]2CC[C@H]1C[C@@H](OC1c3ccccc3CCc3ccccc31)C2`, in that order: 316 nM, 1 µM, more than 31.6 µM and 1000 nM.
On to `CN1[C@@H]2CC[C@H]1C[C@H](OC(=O)c1ccccc1)C2`, for which the Ki in assay [1] is 6310 nM; in assay [4], 15800 nM.
As to `CN1[C@@H]2CC[C@H]1C[C@@H](OC(=O)c1ccccc1)C2` [BENZOYL TROPINE], the Ki was 2000 nM in assay [1], 15.8 µM in assay [2], more than 31.6 µM in assay [3] and 3980 nM in assay [4].
With `C[N+]1(CCc2ccccc2)[C@@H]2CC[C@H]1C[C@@H](OC(=O)c1ccccc1)C2` (stereo partly drawn), the inhibition constant (Ki) in assay [1] is 31.6 nM; in assay [2], 6.31 µM; in assay [3], more than 31.6 µM; in assay [4] it was 158 nM.
For `O=C(O[C@H]1C[C@H]2CC[C@@H](C1)N2)c1ccccc1`, the Ki in assay [1] is 794 nM; in assay [2] it was 3.16 µM; in assay [3], more than 31.6 µM; in assay [4] it was 5010 nM.
As to `CN1[C@@H](CC(=O)c2ccccc2)CCC[C@H]1C[C@H](O)c1ccccc1` [LOBELINE], the Ki in assay [2] was 7.94 µM; in assay [4], 2.51 nM.
On to `O=C(O[C@@H]1C[C@H]2CC[C@@H](C1)N2)c1ccccc1`, for which the Ki in assay [1] was 7940 nM; in assay [4] it was 15800 nM.
For the compound `O=C(O[C@H]1C[C@H]2CC[C@@H](C1)N2CC(O)c1ccccc1)c1ccccc1` (mixture of isomers), the Ki in assay [1] was 631 nM; in assay [2], 12.6 µM; in assay [3] it was more than 31.6 µM; in assay [4], 158 nM.
Turning to `CN1CCC[C@H]1c1cccnc1` [NICOTINE], the Ki in assay [4] is 2510 nM.
